# Test results reported in a melting point compilation (Tetko et al.; mined from patent text by program, amines drawn as free bases though some values may be those of a salt).
row,melting point [°C],SMILES
1,128 to 133,CCOC(=O)c1ccc(NCCOc2ccc(Br)cc2)cc1
2,154 to 155,CC(=O)OC[C@H]1O[C@@H]2[C@@H](Sc3ccccc3N2C(=O)c2ccccc2)[C@@H](OC(C)=O)[C@@H]1OC(C)=O
3,173 to 174,Cc1nc2cc(F)c(C)cc2c(=O)[nH]1
4,201 to 203,CC[C@H]1COC(=O)N1c1nc(-c2ccc(C#N)cc2)c(C#N)s1
5,81,CNC(=O)C(=NOCF)c1ccccc1OC1CCCCO1 (stereo not given)
6,136 to 138,O=C1[C@@H](O)[C@@H]2OCCC[C@@H]2N1Cc1ccccc1 (relative stereo)
7,135 to 136,O=Cc1cc2n(n1)CCOC2=O
8,46 to 47,O=C(NCCSCc1cccc(NC(=O)C2CC2)c1)c1c(Cl)cccc1Cl
9,255 to 258,Nc1cc[nH]c(=O)c1Br
10,143 to 146,CCC(=O)OC1=C(c2nnc(-c3ccccc3)o2)N(C)S(=O)(=O)c2ccccc21
11,152 to 154,Cc1c(C)c2c(c(C)c1O)CCC(C)(CCOc1ccc(CC3SC(=O)NC3=O)cc1)O2 (stereo not given)
12,87 to 88,CC(Cn1ccc(-c2ccccc2Cl)n1)C(=O)N(C)C (stereo not given)
13,132 to 134,C=CCC(CC=C)(CC=C)c1ccc(-c2nc3cc(C#N)c(C#N)cc3n2CCC)cc1
14,66 to 67,CC(=O)Cc1nc(CN2CCCCC2)no1
15,67.5 to 70,CCCc1c(C(=O)C(C)C)c2ccc(C(=O)OCc3ccccc3)cc2n1C(=O)c1ccccc1Cl
16,> 200,CSc1cc2c(cc1C(F)(F)F)N(C(=O)Nc1cccc(C(=O)O)c1)CC2
17,83 to 86,O=C1C(Cc2ccncc2)c2ccccc2N1N1CCCCC1 (stereo not given)
18,148 to 149,COc1cccc(Oc2c(NCCOc3ncccn3)ncnc2NS(=O)(=O)c2ccc(C(C)(C)C)cc2)c1
19,259 to 260,CN1C(=O)CCC2=C1Cc1cc(C(=O)c3ccc(Cl)c(S(N)(=O)=O)c3)ccc12
20,142 to 144,CC(=O)Oc1ccc(S(=O)(=O)c2cnc(C)nc2Nc2c(C)cc(C)cc2C)cc1
21,94 to 95,Nc1cc(C(F)(F)F)cnc1Cl
22,80 to 83,C=CCNC(=O)n1nc(O)cc1C
23,92.5 to 94,C=CCc1ccc(OCCC(C)C)c2c(=O)cc(-c3nnnn3Cc3ccccc3)oc12
24,81 to 83,CN(C)CC1CCCCN1C1c2ccccc2Oc2ccccc21 (stereo not given)

row,melting point [°C],SMILES
1,121 to 124,CC(C)(C)OC(=O)N1CCC2(CC1)CC(CCc1ccccc1)=NO2
2,158 to 160,CCc1cc(Nc2ccc([N+](=O)[O-])cc2)n2nccc2n1
3,58 to 61,COC1=C(OC)C(=O)C(CCC(C)CCC(=O)O)=C(C)C1=O (stereo not given)
4,196 to 198,CC(=O)Nc1ccc(OC(C)=O)c(C(=O)O)c1
5,86,CN(C)C(=O)NCCNCC(O)COc1ccc(OCCOCC2CC2)cc1 (stereo not given)
6,128 to 131,O=S1(=O)NCN(C2CC2)c2c1ccc(Br)c2Cl
7,210,CC(=O)Nc1cc(F)ccc1C(=O)NCCN1CCC(n2c(=O)[nH]c3ccccc32)CC1
8,136 to 138,CC(C)(CO)Nc1nc(-c2ccccc2)nc2ccccc12
9,97 to 99,CC(CCNC(=O)c1ccc(OC(F)(F)F)cc1)CC(C)(C)CNC(=O)c1ccc(OC(F)(F)F)cc1 (stereo not given)
10,90,CCOC(=O)C(C(=O)Nc1nccs1)C(=O)c1cccc(C(F)(F)F)c1NC(=O)C(Cl)Cl (stereo not given)
11,106 to 108,COC(=O)C(Oc1ccc(C(C)(C)C)cc1)c1ccc(Sc2ccc(Cl)cc2)cc1 (stereo not given)
12,132 to 134,CCc1nn2c(-c3ccccc3)ccnc2c1C#N
13,82 to 85,O=C(O)COCCc1ccc(F)cc1
14,175 to 177,Cc1ccc2c(n1)Oc1ccc(C(C)C(=O)OCC(N)=O)cc1C2 (stereo not given)
15,90,CCN1CCN(C(=O)c2ccc(-c3cc(C(=O)Cc4cccc(C)n4)ccn3)cc2)CC1
16,67,CN(C(=O)COc1nnc(C(F)F)s1)c1ccccc1
17,124 to 126,CC(=O)OC1O[C@H](CC#N)[C@@H](OC(=O)c2ccccc2)[C@H]1OC(=O)c1ccccc1 (stereo not given in full)
18,208 to 213,COc1ccc2c(c1)c1c3c(c(-c4ccccc4Cl)cc1n2CCC(=O)NS(=O)(=O)CCN(C)C)C(=O)NC3=O
19,175 to 180,Cn1c(-c2ccc(C(N)=O)cc2)cc2c(N3CCCC3)nc(N3CCCC3)nc21
20,185 to 187,CC(C)c1cccc(C(C)C)c1NC(=O)C(N)Cc1c[nH]c2ccccc12 (stereo not given)
21,245 to 246,O=C1c2cc(Cl)c(Cl)cc2CN2C(=NO)CCC12 (stereo not given)
22,138 to 140,CCOC(=O)c1c(C(C)C)nc(-c2ccccc2)c(C(C)C)c1-c1ccc(F)cc1
23,92 to 94,CS(=O)(=O)Nc1ccc(CCBr)cc1
24,285 to 288,O=C1c2ccccc2CN1[C@@H]1c2cc([N+](=O)[O-])ccc2OC(CF)(CF)[C@H]1O (relative stereo)

row,melting point [°C],SMILES
1,39 to 40,O=C(c1ccccc1)c1ccc(Cl)nc1
2,202 to 203,COC(=O)c1c(-c2ccccc2Cl)c2cc(C)c(C)cc2n(C)c1=O
3,226 to 227,O=C(O)C1=Cc2cc(Cl)c(Oc3cccc(Cl)n3)cc2OC1C(F)(F)F (stereo not given)
4,150 to 155,COc1ccc(C(=O)C(=O)c2ccc(OC(F)F)cc2)cc1C#N
5,192 to 194,CC(C)c1cc(O)cc2cc(-c3ccc(O)cc3)oc12
6,160 to 163,O=C(Oc1cc2ccccc2cn1)c1cc2ccccc2oc1=O
7,132 to 136,O=C1C2=C(CCCC2)C(=O)N1c1ccc(O)cc1F
8,124,CCOC(=O)C1=C(C)NN=C(CC)C1c1cccc([N+](=O)[O-])c1 (stereo not given)
9,42 to 43,CC(=O)OCCCCCCOc1ccc([N+](=O)[O-])c(C=O)c1
10,144 to 147,CCCCCCNC(=O)Nc1cccc(Oc2ccc3nc(COc4ccc(CC5SC(=O)NC5=O)cc4)n(C)c3c2)c1 (stereo not given)
11,170 to 171,CCCCc1ncc(/C=C(\Cc2cc(OC)cs2)C(=O)O)n1Cc1ccccc1Cl
12,122 to 123,CC(C)Cn1nc(OCCCCc2ccc(OC(C)C)cc2Oc2ncc(C(F)(F)F)cc2Cl)cc1CCC(=O)O
13,134,COC(=O)c1cc(N)n[nH]1
14,244 to 246,c1cc(-c2ccc(-n3c4ccccc4c4ccccc43)cc2)cc(-n2c3ccccc3c3ccccc32)c1
15,231 to 234,Cc1c(CNCc2ccccc2)[nH]c(=O)c2c1ccc1nc(Nc3c(Cl)cccc3Cl)n(C)c12
16,75 to 80,CCCCCCCCCCCCCCCCCC(=O)OC1CCN(O)CC1
17,154 to 155,O=S(=O)(C(/C=C/c1ccc(Cl)cc1)c1c(F)c(F)c(F)c(F)c1F)C(/C=C/c1ccc(Cl)cc1)c1c(F)c(F)c(F)c(F)c1F (stereo not given)
18,134,COC1(c2cc(F)cc(Sc3ccc4c(c3)CCC(=S)N4C)c2)CCOCC1
19,148 to 149,COc1ccccc1CN[C@H]1CCCN(CCO)[C@H]1c1ccccc1 (relative stereo)
20,148 to 149,CC(C)Nc1ncc2ccc(=O)n(C)c2n1
21,150 to 151,O=C(NCCSSCCNC(=O)c1ccc(OC(F)(F)F)cc1)c1ccc(OC(F)(F)F)cc1
22,148 to 150,Nc1ccc2c(c1)C(=O)C1(CC1)S2
